Measurements as given in patent publication US20080153873A1, “DIHYDROBENZOFURANYL DERIVATIVES AND METHODS OF THEIR USE” (Wyeth, priority 2006, published 2008).
Structures can show the parent of a compound that is named as a salt.

Molecular target: T1, human hNET (Homo sapiens, UniProt P23975)
T1 construct: expressed in transfected cells; host or cells: MDCK-Net6 cells (MDCK, stably transfected)
Assay: Functional Norepinephrine (NE) Uptake Assay in MDCK-Net6 cells
Type: cell-based
Conditions: for inhibition at 6 µM: % inhibition of NE uptake @ 6 μM, MDCK-Net6 cells, read-out: hNET IC50 (nM) (% Inhibition); for IC50: MDCK-Net6 cells stably transfected with hNET, 3H norepinephrine uptake, 16 nM
Experimental: MDCK-Net6 cells, stably transfected with human hNET (Pacholczyk, T., R. D. Blakely, and S. G. Amara, Nature, 1991, 350(6316): p. 350-4) were cultured in growth medium containing high glucose DMEM (Gibco, Cat. No. 11995), 10% FBS (dialyzed, heat-inactivated, US Bio-Technologies, Lot FBD1129HI) and 500 μg/ml G418 (Gibco, Cat. No. 10131). Cells were plated at 300,000 T75 flask and cells were split twice weekly.
On day 1, cells were plated at 3,000 cells/well in growth medium and maintained in a cell incubator (37° C., 5% CO2). On day 2, growth medium was replaced with 200 μl of assay buffer (25 mM HEPES; 120 mM NaCl; 5 mM KCl; 2.5 mM CaCl2; 1.2 mM MgSO4; 2 mg/ml glucose (pH 7.4, 37° C.)) containing 0.2 mg/ml ascorbic acid and 1 μM pargyline. For screening, 25 μl of compound in 4% DMSO was added directly to each well and the plate is incubated for 5 minutes at 37° C.
To initiate the norepinephrine reuptake, 16 nM (final concentration) of ^3H norepinephrine (specific activity; 40-80 Ci/mmol) in assay buffer was delivered in 25 μl aliquots to each well, and the plates were incubated for 5 minutes at 37° C. The reaction was aspirated from the plate and the cells washed with 250 μl of 50 mM Tris Buffer (4° C.). The plates were left to dry for 1 hour. The cells were lysed using 0.25 M NaOH solution then placed on a shake table and vigorously shaken for 10 minutes. After cell lysis, 100 μl of Microscint 20 (PerkinElmer; #87-051101) were added to the plates and the plates were sealed with film tape and replaced on the shake table for a minimum of 10 minutes. The plates were counted in a TopCount counter (PerkinElmer).
For screening single point determinations, each compound plate contains at least 3 control wells (maximum NE reuptake determinant) and 3 non-specific wells determined by adding 20 μM of desipramine (minimum NE reuptake determinant). Determination of active compounds are calculated using a Microsoft Excel spread sheet applying the following formula:
% inhibition=[1−((mean cpm test compound wells−mean cpm non-specific wells)/(mean cpm control wells−mean cpm non-specific wells))]×100
For IC50 determination, raw cpm values were generated in a data file from the TopCount counter. The data was organized using Microsoft Excel and transferred into PRIZM graphing and statistical program, which calculates the estimated IC50 value. Calculation of IC50 values were made using non-linear regression analysis with a sigmoidal dose response with variable slope. The statistical program used wells containing ^3H norepinephrine only as the maximal NE reuptake determinant and wells containing ^3H norepinephrine plus 20 μM desipramine as the minimal NE reuptake determinant (non-specific determinant). Estimation of the IC50 value was completed on a log scale and the line was fit between the maximal and minimal NE reuptake values.

T1 sequence (P23975 whole entry): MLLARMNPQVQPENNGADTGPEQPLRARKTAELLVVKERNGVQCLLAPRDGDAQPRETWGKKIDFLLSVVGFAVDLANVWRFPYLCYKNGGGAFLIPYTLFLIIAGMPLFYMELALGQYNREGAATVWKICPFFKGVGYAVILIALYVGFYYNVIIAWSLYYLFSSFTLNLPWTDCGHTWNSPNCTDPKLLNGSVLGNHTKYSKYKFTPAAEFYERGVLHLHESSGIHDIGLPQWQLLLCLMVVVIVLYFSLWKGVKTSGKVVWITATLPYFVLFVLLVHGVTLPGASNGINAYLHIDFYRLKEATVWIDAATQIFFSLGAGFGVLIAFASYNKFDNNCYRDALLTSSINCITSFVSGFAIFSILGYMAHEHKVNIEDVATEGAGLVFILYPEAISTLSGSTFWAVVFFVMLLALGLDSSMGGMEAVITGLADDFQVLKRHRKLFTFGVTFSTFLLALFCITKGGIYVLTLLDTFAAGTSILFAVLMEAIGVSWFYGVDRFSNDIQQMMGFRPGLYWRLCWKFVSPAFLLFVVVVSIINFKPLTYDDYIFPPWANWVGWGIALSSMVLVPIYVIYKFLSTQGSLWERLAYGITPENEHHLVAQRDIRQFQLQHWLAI

inhibition at 6 µM | IC50 | SMILES
63% |  | CNC[C@@H]1Oc2ccccc2[C@H]1N1CC(C)(C)c2cccc(F)c21 [Example 5, 1-[(2S,3R)-3-(7-fluoro-3,3-dimethyl-2,3-dihydro-1H-indol-1-yl)-2,3-dihydro-1-benzofuran-2-yl]-N-methylmethanamine hydrochloride]
42% | 301 nM | CNCC1Oc2ccccc2C1n1ccc2ccccc21 (racemic) [Example 11, (+/−)-1-[3-(1H-indol-1-yl)-2,3-dihydro-1-benzofuran-2-yl]-N-methyl methanamine hydrochloride]
 | 1140 nM | CNCC1Oc2ccccc2C1N1C(=O)C(C)(C)c2ccccc21 (stereo not drawn) [Example 15, 3,3-dimethyl-1-{2-[(methylamino)methyl]-2,3-dihydro-1-benzofuran-3-yl}-1,3-dihydro-2H-indol-2-one hydrochloride]
30% |  | CC(C)NC[C@@H]1Oc2ccccc2[C@H]1N1CC(C)(C)c2cccc(F)c21 [Example 6, N-{[(2S,3R)-3-(7-fluoro-3,3-dimethyl-2,3-dihydro-1H-indol-1-yl)-2,3-dihydro-1-benzofuran-2-yl]methyl}propan-2-amine hydrochloride]
42% |  | CCNC[C@@H]1Oc2ccccc2[C@H]1N1CC(C)(C)c2cccc(F)c21 [Example 8, N-{[(2S,3R)-3-(7-fluoro-3,3-dimethyl-2,3-dihydro-1H-indol-1-yl)-2,3-dihydro-1-benzofuran-2-yl]methyl}ethanamine hydrochloride]
 | 319 nM | CN(C)C[C@H]1Oc2ccccc2[C@@H]1N1CC(C)(C)c2cccc(F)c21 [Example 3, 1-[(2R,3S)-3-(7-fluoro-3,3-dimethyl-2,3-dihydro-1H-indol-1-yl)-2,3-dihydro-1-benzofuran-2-yl]-N,N-dimethylmethanamine hydrochloride]
37% |  | CN(C)C[C@@H]1Oc2ccccc2[C@H]1N1CC(C)(C)c2cccc(F)c21 [Example 7, 1-[(2S,3R)-3-(7-fluoro-3,3-dimethyl-2,3-dihydro-1H-indol-1-yl)-2,3-dihydro-1-benzofuran-2-yl]-N,N-dimethylmethanamine hydrochloride]
 | 95 nM | CC1(C)CN([C@H]2c3ccccc3O[C@@H]2CN)c2c(F)cccc21 [Example 4, 1-[(2R,3S)-3-(7-fluoro-3,3-dimethyl-2,3-dihydro-1H-indol-1-yl)-2,3-dihydro-1-benzofuran-2-yl]methanamine hydrochloride]
 | 244 nM | CNCC1Oc2ccccc2C1N1CCc2ccccc21 (racemic) [Example 10, (+/−)-1-[3-(2,3-dihydro-1H-indol-1-yl)-2,3-dihydro-1-benzofuran-2-yl]-N-methylmethanamine hydrochloride]
 | 1750 nM | CNC[C@H]1Oc2cc(F)ccc2[C@@H]1n1c(=O)n(C(C)C)c2cccc(F)c21 (single isomer, unassigned) [Example 20, hydrochloride]
 | 12400 nM | CNC[C@@H]1Oc2cc(F)ccc2[C@H]1n1c(=O)n(C(C)C)c2cccc(F)c21 (single isomer, unassigned) [Example 19, hydrochloride]
 | 3800 nM | CNCC1Oc2cc(F)ccc2C1n1c(=O)n(C(C)C)c2cccc(F)c21 (racemic) [Example 18, 4-Fluoro-3-{(2SR,3RS)-6-fluoro-2-[(methylamino)methyl]-2,3-dihydro-1-benzofuran-3-yl}-1-isopropyl-1,3-dihydro-2H-benzimidazol-2-one hydrochloride]
 | 343 nM | CNC[C@H]1Oc2ccccc2[C@@H]1N1CC(C)(C)c2cc(F)ccc21 [Example 2, 1-[(2R,3S)-3-(5-fluoro-3,3-dimethyl-2,3-dihydro-1H-indol-1-yl)-2,3-dihydro-1-benzofuran-2-yl]-N-methylmethanamine hydrochloride]
 | 27.2 nM | CNC[C@H]1Oc2ccccc2[C@@H]1N1CC(C)(C)c2cccc(F)c21 [Example 1, 1-[(2R,3S)-3-(7-fluoro-3,3-dimethyl-2,3-dihydro-1H-indol-1-yl)-2,3-dihydro-1-benzofuran-2-yl]-N-methylmethanamine hydrochloride]
 | 1030 nM | CNC[C@@H]1Oc2c(F)cccc2[C@H]1N1C(=O)C(C)(C)c2cccc(F)c21 [Example 12, 7-fluoro-1-{(2S,3R)-7-fluoro-2-[(methylamino)methyl]-2,3-dihydro-1-benzofuran-3-yl}-3,3-dimethyl-1,3-dihydro-2H-indol-2-one hydrochloride]
 | 88.5 nM | CNC[C@H]1Oc2ccc(F)cc2[C@@H]1N1CC(C)(C)c2cccc(F)c21 [Example 13, 1-[(2R,3S)-5-fluoro-3-(7-fluoro-3,3-dimethyl-2,3-dihydro-1H-indol-1-yl)-2,3-dihydro-1-benzofuran-2-yl]-N-methylmethanamine hydrochloride]
 | 811 nM | CNCC1Oc2ccccc2C1N1CCCc2ccccc21 (stereo not drawn) [Example 16, 1-[3-(3,4-dihydroquinolin-1(2H)-yl)-2,3-dihydro-1-benzofuran-2-yl]-N-methylmethanamine hydrochloride]
 | 3550 nM | CNCC1Oc2ccccc2C1N(C)c1ccccc1 (stereo not drawn) [Example 17, N-methyl-2-[(methylamino)methyl]-N-phenyl-2,3-dihydro-1-benzofuran-3-amine hydrochloride]
54% |  | CNCC1Oc2cc(F)ccc2C1N1C(=O)C(C)(C)c2ccccc21 (stereo not drawn) [Example 14, 1-{6-fluoro-2-[(methylamino)methyl]-2,3-dihydro-1-benzofuran-3-yl}-3,3-dimethyl-1,3-dihydro-2H-indol-2-one hydrochloride]
 | 846 nM | CCOc1ccccc1O[C@H]1c2ccccc2O[C@@H]1CNC [Example 9, 1-[(2R,3S)-3-(2-ethoxyphenoxy)-2,3-dihydro-1-benzofuran-2-yl]-N-methylmethanamine hydrochloride]
